Measurements taken from patent US20220251141A1, “IMMUNOMODULATORS” (Bristol-Myers Squibb Company, priority 2019, published 2022).
Counter-ions that a name gives are not always drawn. Numbered stars: 1 amine (or outer) side, 2 acyl side, 3 side chain; on linkers, the order of the positions; unused ones are H or OH. Bridge positions count the residues as written; N and C are the ends. Square brackets hold non-standard residues; d marks the D form. Side chains are listed from the residue outwards. Peptide text beside a SMILES is read from it. * marks the point of attachment. X6 = CC(C)C[C@H](N[*:1])C(=O)C1C[C@H](O)C[C@H]1C(=O)[*:2]; Trp(1-CH2CO2Me) = COC(=O)Cn1cc(C[C@H](N)C(=O)O)c2ccccc21; Trp(1-CH2COOH) = N[C@@H](Cc1cn(CC(=O)O)c2ccccc12)C(=O)O; NHCH2CH2Ph(3,4-OCH2O) = c1cc2c(cc1CCN*)OCO2; NH(1R-phenylethyl) = C[C@@H](N*)c1ccccc1; NHCH2CHPh2 = c1ccc(C(CN*)c2ccccc2)cc1; Dab(CONH2) = NC(=O)NCC[C@H](N)C(=O)O; Hyp = O=C(O)[C@@H]1C[C@@H](O)CN1; NHcycloheptyl = C1CCCC(N*)CC1; NMeNle = CCCC[C@H](NC)C(=O)O; NMeA = CN[C@@H](C)C(=O)O; X7 = COc1ccc(CN*)c(OC)c1; Dab = NCC[C@H](N)C(=O)O; Dap = NC[C@H](N)C(=O)O; Boc = CC(C)(C)OC(=O)*; CO = O=C([*:1])[*:2]; Tfa = O=C(C(F)(F)F)*

Biological target: T1, PD-1/PD-L1 (Homo sapiens, UniProt Q9NZQ7)
T1 construct: TVMV protease site linker (C); made in house; host or cells: HEK293T cells
Assay: PD-1/PD-L1 Homogenous Time-Resolved Fluorescence (HTRF) binding assay
Conditions: PD-L1-His 10 nM final, PD-1-Ig 20 nM final; inhibitors pre-incubated with PD-L1-His for 15 m
Outline: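 Compounds pre-incubated 15 min with human PD-L1(18-239)-His (10 nM final), then PD-1(25-167)-Ig (20 nM final) added for 15 min, in dPBS with 0.1% BSA and 0.05% Tween-20. Eu-cryptate anti-Ig (1 nM) and APC anti-His (20 nM) added, 30 min equilibration, 665/620 nm ratio read; IC50 reported.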

Row | SMILES | IC50
1 | CCCC[C@H]1C(=O)N(C)[C@@H](CCCC)C(=O)N[C@@H](CC(C)C)C(=O)N[C@H](C(=O)NCC(N)=O)CSCC(=O)N[C@@H](Cc2ccc(O)cc2)C(=O)N(C)[C@@H](C)C(=O)N[C@@H](CC(N)=O)C(=O)N2CCC[C@H]2C(=O)N[C@@H](CNC(=O)NCC(c2ccccc2)c2ccccc2)C(=O)N[C@@H](CC(C)C)C(=O)N2C[C@H](O)C[C@H]2C(=O)N[C@@H](Cc2c[nH]c3ccccc23)C(=O)N[C@@H](CCN)C(=O)N[C@@H](Cc2cn(CC(=O)O)c3ccccc23)C(=O)N1C [Example 1040] ({CH2CO}-Y[NMeA]NP[Dap]([CO-NHCH2CHPh2])L[Hyp]W[Dab][Trp(1-CH2COOH)][NMeNle][NMeNle]LCG-NH2; thioether N-14) | 3 nM
2 | CCCC[C@H]1C(=O)N(C)[C@@H](CCCC)C(=O)N[C@@H](CC(C)C)C(=O)N[C@H](C(=O)NCC(N)=O)CSCC(=O)N[C@@H](Cc2ccc(O)cc2)C(=O)N(C)[C@@H](C)C(=O)N[C@@H](CC(N)=O)C(=O)N2CCC[C@H]2C(=O)N[C@@H](CNC(=O)N[C@H](C)c2ccccc2)C(=O)N[C@@H](CC(C)C)C(=O)N2C[C@H](O)C[C@H]2C(=O)N[C@@H](Cc2c[nH]c3ccccc23)C(=O)N[C@@H](CCN)C(=O)N[C@@H](Cc2cn(CC(=O)O)c3ccccc23)C(=O)N1C [Example 1041] ({CH2CO}-Y[NMeA]NP[Dap]([CO-NH(1R-phenylethyl)])L[Hyp]W[Dab][Trp(1-CH2COOH)][NMeNle][NMeNle]LCG-NH2; thioether N-14) | 4.4 nM
3 | CCCC[C@H]1C(=O)N(C)[C@@H](CCCC)C(=O)N[C@@H](CC(C)C)C(=O)N[C@H](C(=O)NCC(N)=O)CSCC(=O)N[C@@H](Cc2ccc(O)cc2)C(=O)N(C)[C@@H](C)C(=O)N[C@@H](CC(N)=O)C(=O)N2CCC[C@H]2C(=O)N[C@@H](CNC(=O)NCC(c2ccccc2)c2ccccc2)C(=O)N[C@@H](CC(C)C)C(=O)N2C[C@H](O)C[C@H]2C(=O)N[C@@H](Cc2c[nH]c3ccccc23)C(=O)N[C@@H](CCNC(=O)NCC(c2ccccc2)c2ccccc2)C(=O)N[C@@H](Cc2cn(CC(=O)O)c3ccccc23)C(=O)N1C [Example 1042] ({CH2CO}-Y[NMeA]NP[Dap]([CO-NHCH2CHPh2])L[Hyp]W[Dab]([CO-NHCH2CHPh2])[Trp(1-CH2COOH)][NMeNle][NMeNle]LCG-NH2; thioether N-14) | 11.4 nM
4 | CCCC[C@H]1C(=O)N(C)[C@@H](CCCC)C(=O)N[C@@H](CC(C)C)C(=O)N[C@H](C(=O)NCC(N)=O)CSCC(=O)N[C@@H](Cc2ccc(O)cc2)C(=O)N(C)[C@@H](C)C(=O)N[C@@H](CC(N)=O)C(=O)N2CCC[C@H]2C(=O)N[C@@H](CNC(=O)NCc2ccc(OC)cc2OC)C(=O)N[C@@H](CC(C)C)C(=O)N2C[C@H](O)C[C@H]2C(=O)N[C@@H](Cc2c[nH]c3ccccc23)C(=O)N[C@@H](CCN)C(=O)N[C@@H](Cc2cn(CC(=O)O)c3ccccc23)C(=O)N1C [Example 1043] ({CH2CO}-Y[NMeA]NP[Dap]([CO-X7])L[Hyp]W[Dab][Trp(1-CH2COOH)][NMeNle][NMeNle]LCG-NH2; thioether N-14) | 3 nM
5 | CCCC[C@H]1C(=O)N(C)[C@@H](CCCC)C(=O)N[C@@H](CC(C)C)C(=O)N[C@H](C(=O)NCC(N)=O)CSCC(=O)N[C@@H](Cc2ccc(O)cc2)C(=O)N(C)[C@@H](C)C(=O)N[C@@H](CC(N)=O)C(=O)N2CCC[C@H]2C(=O)N[C@@H](CNC(=O)NCc2ccc(OC)cc2OC)C(=O)N[C@@H](CC(C)C)C(=O)N2C[C@H](O)C[C@H]2C(=O)N[C@@H](Cc2c[nH]c3ccccc23)C(=O)N[C@@H](CCNC(=O)NCc2ccc(OC)cc2OC)C(=O)N[C@@H](Cc2cn(CC(=O)O)c3ccccc23)C(=O)N1C [Example 1044] ({CH2CO}-Y[NMeA]NP[Dap]([CO-X7])L[Hyp]W[Dab]([CO-X7])[Trp(1-CH2COOH)][NMeNle][NMeNle]LCG-NH2; thioether N-14) | 2.6 nM
6 | CCCC[C@H]1C(=O)N(C)[C@@H](CCCC)C(=O)N[C@@H](CC(C)C)C(=O)N[C@H](C(=O)NCC(N)=O)CSCC(=O)N[C@@H](Cc2ccc(O)cc2)C(=O)N(C)[C@@H](C)C(=O)N[C@@H](CC(N)=O)C(=O)N2CCC[C@H]2C(=O)N[C@@H](CNC(=O)NC2CCCCCC2)C(=O)N[C@@H](CC(C)C)C(=O)N2C[C@H](O)C[C@H]2C(=O)N[C@@H](Cc2c[nH]c3ccccc23)C(=O)N[C@@H](CCNC(=O)NC2CCCCCC2)C(=O)N[C@@H](Cc2cn(CC(=O)O)c3ccccc23)C(=O)N1C [Example 1045] ({CH2CO}-Y[NMeA]NP[Dap]([CO-NHcycloheptyl])L[Hyp]W[Dab]([CO-NHcycloheptyl])[Trp(1-CH2COOH)][NMeNle][NMeNle]LCG-NH2; thioether N-14) | 4.6 nM
7 | CCCC[C@H]1C(=O)N(C)[C@@H](CCCC)C(=O)N[C@@H](CC(C)C)C(=O)N[C@H](C(=O)NCC(N)=O)CSCC(=O)N[C@@H](Cc2ccc(O)cc2)C(=O)N(C)[C@@H](C)C(=O)N[C@@H](CC(N)=O)C(=O)N2CCC[C@H]2C(=O)N[C@@H](CNC(=O)C(F)(F)F)C(=O)N[C@@H](CC(C)C)C(=O)N2C[C@H](O)C[C@H]2C(=O)N[C@@H](Cc2c[nH]c3ccccc23)C(=O)N[C@@H](CCN)C(=O)N[C@@H](Cc2cn(CC(=O)O)c3ccccc23)C(=O)N1C [Example 1046] ({CH2CO}-Y[NMeA]NP[Dap](Tfa)L[Hyp]W[Dab][Trp(1-CH2COOH)][NMeNle][NMeNle]LCG-NH2; thioether N-14) | 2.6 nM
8 | CCCC[C@H]1C(=O)N(C)[C@@H](CCCC)C(=O)N[C@@H](CC(C)C)C(=O)N[C@H](C(=O)NCC(N)=O)CSCC(=O)N[C@@H](Cc2ccc(O)cc2)C(=O)N(C)[C@@H](C)C(=O)N[C@@H](CC(N)=O)C(=O)N2CCC[C@H]2C(=O)N[C@@H](CNC(=O)NCCc2ccc3c(c2)OCO3)C(=O)N[C@@H](CC(C)C)C(=O)N2C[C@H](O)C[C@H]2C(=O)N[C@@H](Cc2c[nH]c3ccccc23)C(=O)N[C@@H](CCNC(=O)NCCc2ccc3c(c2)OCO3)C(=O)N[C@@H](Cc2cn(CC(=O)O)c3ccccc23)C(=O)N1C [Example 1048] ({CH2CO}-Y[NMeA]NP[Dap]([CO-NHCH2CH2Ph(3,4-OCH2O)])L[Hyp]W[Dab]([CO-NHCH2CH2Ph(3,4-OCH2O)])[Trp(1-CH2COOH)][NMeNle][NMeNle]LCG-NH2; thioether N-14) | 1.1 nM
9 | CCCC[C@H]1C(=O)N(C)[C@@H](CCCC)C(=O)N[C@@H](CC(C)C)C(=O)N[C@H](C(=O)NCC(N)=O)CSCC(=O)N[C@@H](Cc2ccc(O)cc2)C(=O)N(C)[C@@H](C)C(=O)N[C@@H](CC(N)=O)C(=O)N2CCC[C@H]2C(=O)N[C@@H](CNC(=O)OC(C)(C)C)C(=O)N[C@@H](CC(C)C)C(=O)C2C[C@H](O)C[C@H]2C(=O)N[C@@H](Cc2c[nH]c3ccccc23)C(=O)N[C@@H](CCNC(N)=O)C(=O)N[C@@H](Cc2cn(CC(=O)OC)c3ccccc23)C(=O)N1C (stereo partly shown) [Example 2001] ({CH2CO}-Y[NMeA]NP[Dap](Boc)[X6]W[Dab(CONH2)][Trp(1-CH2CO2Me)][NMeNle][NMeNle]LCG-NH2; thioether N-13) | 3.4 nM
10 | CCCC[C@H]1C(=O)N(C)[C@@H](CCCC)C(=O)N[C@@H](CC(C)C)C(=O)N[C@H](C(=O)NCC(N)=O)CSCC(=O)N[C@@H](Cc2ccc(O)cc2)C(=O)N(C)[C@@H](C)C(=O)N[C@@H](CC(N)=O)C(=O)N2CCC[C@H]2C(=O)N[C@@H](CNC(=O)OC(C)(C)C)C(=O)N[C@@H](CC(C)C)C(=O)C2C[C@H](O)C[C@H]2C(=O)N[C@@H](Cc2c[nH]c3ccccc23)C(=O)N[C@@H](CCNC(=O)OC(C)(C)C)C(=O)N[C@@H](Cc2cn(CC(=O)OC)c3ccccc23)C(=O)N1C (stereo partly shown) [Example 2002] ({CH2CO}-Y[NMeA]NP[Dap](Boc)[X6]W[Dab](Boc)[Trp(1-CH2CO2Me)][NMeNle][NMeNle]LCG-NH2; thioether N-13) | 1.2 nM
